Reference: ChEMBL document CHEMBL6109064, “Functional and structural polypharmacology of indazole-based privileged ligands to tackle the undruggability of membrane transporters” (Eur J Med Chem, 2025)

Assays:
[1] = molecular target: T1, Broad substrate specificity ATP-binding cassette transporter ABCG2 (Homo sapiens, UniProt Q9UNQ0); assay: Inhibition of ABCG2 (unknown origin) expressed in dog MDCK-II-BCRP cells assessed as increase in Hoechst 33342 fluorescence intensity using Hoechst 33342 as tracer preincubated for 30 mins followed by Hoechst 33342 addition and measured after 120 mins by fluorescence based analysis; format: cell-based
T1 sequence (Q9UNQ0 whole entry): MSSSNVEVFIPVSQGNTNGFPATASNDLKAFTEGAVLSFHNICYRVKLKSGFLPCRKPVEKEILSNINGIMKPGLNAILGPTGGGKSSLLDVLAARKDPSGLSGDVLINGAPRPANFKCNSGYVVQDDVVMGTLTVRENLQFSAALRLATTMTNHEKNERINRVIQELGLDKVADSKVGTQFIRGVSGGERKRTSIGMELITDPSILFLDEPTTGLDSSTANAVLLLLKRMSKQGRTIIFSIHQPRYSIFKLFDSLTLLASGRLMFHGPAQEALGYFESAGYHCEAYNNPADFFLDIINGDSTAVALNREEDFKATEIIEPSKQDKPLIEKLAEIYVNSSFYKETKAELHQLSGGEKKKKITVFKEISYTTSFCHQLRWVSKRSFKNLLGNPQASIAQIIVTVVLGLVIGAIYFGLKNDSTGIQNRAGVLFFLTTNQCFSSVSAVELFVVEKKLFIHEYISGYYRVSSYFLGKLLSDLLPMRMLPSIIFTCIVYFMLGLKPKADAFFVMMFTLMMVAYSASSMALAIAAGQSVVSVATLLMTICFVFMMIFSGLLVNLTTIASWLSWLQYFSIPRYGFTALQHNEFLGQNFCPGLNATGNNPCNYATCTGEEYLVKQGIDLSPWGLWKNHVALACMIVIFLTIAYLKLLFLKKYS

[2] = molecular target: T2, Solute carrier organic anion transporter family member 2B1 (Homo sapiens, UniProt O94956); assay: Inhibition of OATP2B1 (unknown origin) transfected in human A-431 cells assessed as inhibition of pyranine uptake preincubated for 5 mins followed by pyranine addition and measured after 15 mins by fluorescence based analysis; format: cell-based
T2 sequence (O94956 whole entry): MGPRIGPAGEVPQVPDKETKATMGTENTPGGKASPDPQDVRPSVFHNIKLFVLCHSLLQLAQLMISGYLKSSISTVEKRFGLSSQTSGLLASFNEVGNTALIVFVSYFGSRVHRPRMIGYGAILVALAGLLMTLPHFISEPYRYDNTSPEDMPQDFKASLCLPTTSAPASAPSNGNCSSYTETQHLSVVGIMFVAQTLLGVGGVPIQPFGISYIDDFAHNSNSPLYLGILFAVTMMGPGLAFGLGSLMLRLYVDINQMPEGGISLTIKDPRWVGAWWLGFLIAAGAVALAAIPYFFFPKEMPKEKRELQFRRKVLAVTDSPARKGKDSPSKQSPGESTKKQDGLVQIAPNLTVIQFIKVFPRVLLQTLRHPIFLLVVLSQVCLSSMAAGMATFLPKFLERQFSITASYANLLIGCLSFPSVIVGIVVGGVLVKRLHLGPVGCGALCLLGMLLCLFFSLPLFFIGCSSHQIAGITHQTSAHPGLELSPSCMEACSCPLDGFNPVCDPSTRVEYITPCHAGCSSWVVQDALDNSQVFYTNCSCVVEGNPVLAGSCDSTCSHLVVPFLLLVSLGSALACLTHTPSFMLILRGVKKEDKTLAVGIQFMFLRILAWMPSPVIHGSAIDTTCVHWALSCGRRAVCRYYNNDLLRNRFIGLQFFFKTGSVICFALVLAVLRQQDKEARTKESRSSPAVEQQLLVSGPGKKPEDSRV

[3] = molecular target: ATP-dependent translocase ABCB1 (Homo sapiens, UniProt P08183); assay: Inhibition of ABCB1 in human A2780 ADR cells assessed as increase in daunorubicin fluorescence intensity using daunorubicin as tracer preincubated for 30 mins followed by daunorubicin addition and measured for 180 mins by flow cytometry; format: cell-based
Sequence of ATP-dependent translocase ABCB1 (P08183 whole entry): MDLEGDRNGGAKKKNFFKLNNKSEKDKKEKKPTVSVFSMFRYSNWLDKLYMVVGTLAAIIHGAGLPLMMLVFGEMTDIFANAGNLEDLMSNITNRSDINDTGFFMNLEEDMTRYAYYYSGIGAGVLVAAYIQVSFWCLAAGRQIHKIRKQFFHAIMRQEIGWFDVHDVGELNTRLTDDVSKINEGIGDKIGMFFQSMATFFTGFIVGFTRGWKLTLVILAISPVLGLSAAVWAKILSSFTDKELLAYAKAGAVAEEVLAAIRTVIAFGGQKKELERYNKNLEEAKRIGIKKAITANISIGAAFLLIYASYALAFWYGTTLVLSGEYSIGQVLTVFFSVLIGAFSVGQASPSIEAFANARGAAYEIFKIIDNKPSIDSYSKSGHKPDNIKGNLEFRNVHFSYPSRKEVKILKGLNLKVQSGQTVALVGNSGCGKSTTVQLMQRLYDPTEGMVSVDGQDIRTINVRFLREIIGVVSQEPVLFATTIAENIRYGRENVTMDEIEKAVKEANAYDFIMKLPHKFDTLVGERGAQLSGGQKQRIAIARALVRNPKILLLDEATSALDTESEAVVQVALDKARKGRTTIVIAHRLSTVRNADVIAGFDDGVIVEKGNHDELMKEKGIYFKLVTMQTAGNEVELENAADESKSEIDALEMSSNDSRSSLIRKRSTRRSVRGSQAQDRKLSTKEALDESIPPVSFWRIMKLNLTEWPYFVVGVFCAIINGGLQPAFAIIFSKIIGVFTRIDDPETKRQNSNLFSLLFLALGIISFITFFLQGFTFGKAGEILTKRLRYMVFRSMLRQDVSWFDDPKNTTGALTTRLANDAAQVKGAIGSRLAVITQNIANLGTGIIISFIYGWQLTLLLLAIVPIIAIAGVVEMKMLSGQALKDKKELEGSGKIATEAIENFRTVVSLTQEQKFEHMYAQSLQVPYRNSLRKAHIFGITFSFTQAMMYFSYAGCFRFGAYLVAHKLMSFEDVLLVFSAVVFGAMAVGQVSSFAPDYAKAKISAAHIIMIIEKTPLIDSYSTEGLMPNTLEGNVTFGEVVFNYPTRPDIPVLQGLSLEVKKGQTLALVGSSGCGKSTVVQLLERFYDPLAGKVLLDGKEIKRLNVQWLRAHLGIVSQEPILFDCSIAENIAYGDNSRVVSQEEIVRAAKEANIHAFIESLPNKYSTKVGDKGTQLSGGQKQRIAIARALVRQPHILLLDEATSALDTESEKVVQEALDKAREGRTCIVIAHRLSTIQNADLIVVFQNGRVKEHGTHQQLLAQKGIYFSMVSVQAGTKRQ

[4] = molecular target: T3, Multidrug resistance-associated protein 1 (Homo sapiens, UniProt P33527); assay: Inhibition of ABCC1 in human NCI-H69AR cells assessed as increase in rhodamine123 fluorescence intensity using rhodamine123 as tracer preincubated for 30 mins followed by rhodamine 123 addition and measured for 180 mins by flow cytometry; format: cell-based
T3 sequence (P33527 whole entry): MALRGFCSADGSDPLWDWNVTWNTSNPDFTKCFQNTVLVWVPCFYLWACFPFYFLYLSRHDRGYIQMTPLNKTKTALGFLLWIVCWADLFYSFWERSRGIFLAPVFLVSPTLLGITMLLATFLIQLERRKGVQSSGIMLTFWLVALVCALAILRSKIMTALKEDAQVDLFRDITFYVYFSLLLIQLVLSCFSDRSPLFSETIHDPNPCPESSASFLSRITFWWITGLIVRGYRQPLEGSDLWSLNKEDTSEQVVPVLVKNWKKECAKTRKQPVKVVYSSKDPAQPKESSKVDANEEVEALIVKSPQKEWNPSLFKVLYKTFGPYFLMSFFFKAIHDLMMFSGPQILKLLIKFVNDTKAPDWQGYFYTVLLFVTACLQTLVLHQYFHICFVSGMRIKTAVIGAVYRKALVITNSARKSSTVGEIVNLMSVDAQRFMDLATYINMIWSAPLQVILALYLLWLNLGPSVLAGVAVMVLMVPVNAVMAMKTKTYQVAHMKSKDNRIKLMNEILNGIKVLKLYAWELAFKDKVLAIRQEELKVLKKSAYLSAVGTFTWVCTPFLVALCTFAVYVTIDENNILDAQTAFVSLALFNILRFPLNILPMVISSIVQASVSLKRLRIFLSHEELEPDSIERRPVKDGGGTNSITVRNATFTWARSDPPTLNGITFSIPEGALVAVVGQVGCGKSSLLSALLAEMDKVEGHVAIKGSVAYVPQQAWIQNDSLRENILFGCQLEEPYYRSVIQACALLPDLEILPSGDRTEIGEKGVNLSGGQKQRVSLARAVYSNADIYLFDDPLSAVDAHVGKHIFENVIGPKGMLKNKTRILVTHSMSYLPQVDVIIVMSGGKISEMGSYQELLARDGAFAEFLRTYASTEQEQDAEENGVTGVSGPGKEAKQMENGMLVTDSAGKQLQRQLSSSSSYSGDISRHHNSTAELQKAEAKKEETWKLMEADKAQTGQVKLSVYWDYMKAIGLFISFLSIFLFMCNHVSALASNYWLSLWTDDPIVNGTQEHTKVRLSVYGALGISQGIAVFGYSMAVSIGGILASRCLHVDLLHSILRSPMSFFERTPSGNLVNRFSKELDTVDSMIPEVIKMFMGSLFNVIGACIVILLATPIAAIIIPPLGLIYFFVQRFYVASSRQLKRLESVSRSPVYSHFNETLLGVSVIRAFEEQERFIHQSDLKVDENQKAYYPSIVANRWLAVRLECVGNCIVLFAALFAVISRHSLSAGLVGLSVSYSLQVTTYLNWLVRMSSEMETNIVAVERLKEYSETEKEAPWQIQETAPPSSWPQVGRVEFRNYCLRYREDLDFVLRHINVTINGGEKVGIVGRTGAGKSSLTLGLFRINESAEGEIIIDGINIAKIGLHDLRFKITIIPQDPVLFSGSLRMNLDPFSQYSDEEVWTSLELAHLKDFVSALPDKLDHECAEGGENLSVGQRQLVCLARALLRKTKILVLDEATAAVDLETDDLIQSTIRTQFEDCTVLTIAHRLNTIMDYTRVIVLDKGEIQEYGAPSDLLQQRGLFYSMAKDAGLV

[5] = molecular target: T4, Solute carrier organic anion transporter family member 1B3 (Homo sapiens, UniProt Q9NPD5); assay: Inhibition of OATP1B3 (unknown origin) transfected in human A-431 cells assessed as inhibition of DHPDS uptake preincubated for 5 mins followed by DHPDS addition and measured after 10 mins by fluorescence based analysis; format: cell-based
T4 sequence (Q9NPD5 whole entry): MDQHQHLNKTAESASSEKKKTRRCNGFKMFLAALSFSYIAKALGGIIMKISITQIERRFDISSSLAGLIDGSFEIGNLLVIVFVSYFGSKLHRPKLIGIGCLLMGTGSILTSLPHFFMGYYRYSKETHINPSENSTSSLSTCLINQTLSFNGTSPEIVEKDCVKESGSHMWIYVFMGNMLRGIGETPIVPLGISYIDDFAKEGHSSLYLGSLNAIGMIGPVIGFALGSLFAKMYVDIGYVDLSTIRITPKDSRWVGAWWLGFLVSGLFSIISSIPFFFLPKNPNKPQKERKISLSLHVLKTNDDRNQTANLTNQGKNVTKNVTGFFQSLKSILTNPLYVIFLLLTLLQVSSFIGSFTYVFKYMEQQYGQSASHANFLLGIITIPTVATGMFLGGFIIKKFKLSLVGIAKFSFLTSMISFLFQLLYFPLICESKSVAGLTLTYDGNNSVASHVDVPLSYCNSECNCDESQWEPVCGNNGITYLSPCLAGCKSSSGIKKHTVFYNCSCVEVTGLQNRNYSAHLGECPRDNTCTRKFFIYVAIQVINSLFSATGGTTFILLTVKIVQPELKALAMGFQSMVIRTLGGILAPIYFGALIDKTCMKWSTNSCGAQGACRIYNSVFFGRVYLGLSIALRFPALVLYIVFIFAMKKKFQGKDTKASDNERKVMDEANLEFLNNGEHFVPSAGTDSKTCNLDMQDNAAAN

[6] = Inhibition of ABCA1 (unknown origin) expressed in mouse J774.A1 cells assessed as inhibition of 25-NBD-cholesterol fluorescence intensity preincubated for 24 hrs followed by 25-NBD-cholesterol addition and measured after 48 hrs by flow cytometry; format: cell-based, Homo sapiens
[7] = molecular target: T3, Multidrug resistance-associated protein 1; assay: Inhibition of ABCC1 in human NCI-H69AR cells assessed as increase in daunorubicin fluorescence intensity using daunorubicin as tracer preincubated for 30 mins followed by daunorubicin addition and measured for 180 mins by flow cytometry; format: cell-based

`O=C(Cn1nc(C(=O)Nc2ccccn2)c2ccccc21)Nc1cc(Cl)ccc1Cl` gave an IC50 [1] of 1030 nM, an IC50 [2] of 167 nM and an IC50 [3] of 1740 nM. The IC50 ([4]; nci-h69ar) was “Not_active”, the IC50 [5] was 14100 nM and the IC50 ([6]; read-out: IC50) was 13000 nM. For the same compound, the IC50 [7] was 492 nM.
`COc1cccc(NC(=O)c2nn(CC(=O)Nc3ccccc3OC)c3ccccc23)c1` gave an IC50 [1] of 6290 nM, an IC50 [2] of 124 nM and an IC50 [3] of 2180 nM. For the same compound, the IC50 ([4]; read-out: IC50) was 3790 nM, the IC50 [5] was 1800 nM and the IC50 [6] was “Not_active”. It also gave an IC50 [7] of 2190 nM.
With `O=C(Cn1nc(C(=O)Nc2cccnc2)c2ccccc21)Nc1ccc(Cl)cc1` the IC50 [1] was 6560 nM, the IC50 [2] was 155 nM and the IC50 [3] was 8000 nM. For the same compound, the IC50 ([4]; read-out: IC50) was 2900 nM, the IC50 [5] was 1840 nM and the IC50 ([6]; read-out: IC50) was 4700 nM. It also gave an IC50 [7] of 5150 nM.
In the case of `COc1cccc(NC(=O)Cn2nc(C(=O)Nc3cccc(OC)c3)c3ccccc32)c1`, the IC50 [1] is reported as 2070 nM, the IC50 [2] is reported as 583 nM and the IC50 [3] is reported as 1430 nM. For the same compound, the IC50 ([4]; read-out: IC50) was 2660 nM, the IC50 [5] was 2290 nM and the IC50 [6] was “Not_active”. For the same compound, the IC50 [7] was 1480 nM.
